Literature values in patent US6818658B2, “Acylated piperidine derivatives as melanocortin-4 receptor agonists” (Merck & Co., Inc., priority 2001, dated 2004).

Legend:
[1] = patients
[2] = injected intramuscularly or subcutaneously, males with psychogenic erectile dysfunction

Row | Molecule | duration of effect [1] | onset of action ([1]; for sildenafil after an oral dose) | response rate [2]
1 | Cc1ccc(N(CC2=NCCN2)c2cccc(O)c2)cc1 [phentolamine] | 2 h | 5 to 30 min | –
2 | Ac-Nle-c[Asp-His-DPhe-Arg-Trp-Lys]-NH2 [MT-II] | – | – | 75%
